Test results: patent publication US20240246916A1, “7-NITRO-8-HYDROXYQUINOLINE DERIVATIVES, PREPARATION METHOD THEREFORE AND MEDICAL USE THEREOF” (Jiangsu Yahong Meditech Co., Ltd., priority 2021, published 2024)
Values after ≈ are worked out from the molar mass of the structure shown.

Tests used:
Format in all cases: cell-based
[1] = test system: Prostate cancer cell line LNcaP; assay: Inhibitory activity on cancer cells, CellTiter-Glo viability, LNcaP; settings: Homo sapiens, 72 hours treatment
Description: (§1) HUVEC (purchased from Allcells Biological Technology (Shanghai) Co., Ltd.); UM-UC-3 (ATCC); LNCaP (ATCC); RM-1 (purchased from Nanjing Cobioer Biosciences Co., Ltd.) (1) On the first day, the cells were seeded in a 96-well plate, and the previous medium was poured off. 5 mL of DPBS was added to wash the cells, and then removed by a pipette and discarded. Then, 1 mL of trypsin (0.25%) was added, and the plate was placed in a cell culture incubator at 37 °C, 5% CO2 for digestion, and taken out after about 2 to 5 minutes. New corresponding medium was added, and pipetted to resuspend the cells evenly, and the cells were then counted with an automated cell counter. Regarding HUVEC, the medium used was endothelial cell complete medium; regarding UM-UC-3, the medium used was 89 v % EMEM+10 v % fetal bovine serum+1 v % penicillin-streptomycin double anti-body; regarding LNcaP, the medium used was 89 v % RPM11640+10 v % fetal bovine serum+1 v % penicillin-streptomycin double anti-body; and regarding RM1, the medium used was 89 v % DMEM+10 v % fetal bovine serum+1 v % penicillin-streptomycin double anti-body. (2) HUVEC cells were seeded in columns 1 to 11 of a 96-well plate (Corning, Cat. No. 3610) at a density of 2000 cells per well in 100 μL of medium, and the medium free of cell was added to the wells of column 12. The other three types of cells were also seeded, wherein UM-UC-3 and RM-1 cells were seeded at a density of 3000 cells per well, and LNCap cells were seeded at a density of 5000 cells per well. Then, the plate was placed in an incubator at 37° C., 5% CO2 for 24 hours. (3) On the second day, the compounds of the present invention and the reference drug nitroxoline (obtained according to the preparation method disclosed in the prior art) were diluted in gradient (2.5 folds, started at 100 μmol) to obtain 8 dose points (there were a total of 8 columns of wells; the first column of wells had the highest concentration, the concentration decreased in turn, and the last column of wells had the lowest concentration). 10 μL of the compound diluted in gradient was added to the 100 μL of cells in column 1 to column 10 with an 8-channel pipette. 10 μL of the corresponding medium containing 0.33 v % DMSO was added to column 11 and column 12. The plate was incubated in an incubator at 37° C., 5% CO2 for 72 hours (note: column 11 was used as MAX well with cells and no compounds; and column 12 was used as MIN well with no cells and no compounds). (4) After treating with the compounds of the present invention for 72 hours, the cell viability detection reagents in the above CellTiter-Glo® assay kit were added to the 96-well plate at 50 μL per well according to the instructions. The plate was shaken on a shaker in the dark for 5 to 10 minutes, and then the cell activity was determined by a multifunctional microplate reader. Finally, the growth inhibition of the compounds of the present invention on the cells was plotted by XLFIT 5.3 software, and the IC50 values of the compounds of the present invention were calculated.

[2] = test system: Acinetobacter baumannii (carbapenem-resistant clinical isolates; ATCC19606); assay: MIC by micro broth dilution (CLSI), Acinetobacter baumannii; settings: Acinetobacter baumannii; for MIC50 / MIC90: ATCC19606, Clinical strain; for MIC50: read-out: MIC50; for MIC90: read-out: MIC90; for MIC: Standard strain ATCC19606, read-out: MIC
From the text: (§2) The test bacteria were one strain of clinically isolated carbapenem-resistant Escherichia coli, two strains of carbapenem-resistant Acinetobacter baumannii, two strains of methicillin-resistant Staphylococcus aureus, two strains of sensitive Staphylococcus aureus, and 7 strains of Klebsiella pneumoniae. Duplicate strains isolated from the same patient were eliminated. There were also […] quality control strains Escherichia coli ATCC25922, Acinetobacter baumannii ATCC19606, Staphylococcus aureus ATCC29213, Klebsiella pneumoniae ATCC BAA-1705, ATCC 43816, ATCC BAA-2472, ATCC-BAA-1898, ATCC-BAA-1899, NCTC 13440 and ATCC-BAA-2470. There were 24 strains in total.
(§3) According to the recommendations of relevant documents of the American Clinical and Laboratory Standards Institute (CLSI), the micro broth dilution method was used to determine the MIC of the compounds of the present invention against clinically isolated strains. • 3.1 Formulation of antibacterial drug: All the compounds of the present invention were dissolved in DMSO. The drug concentration range was 128 mg/L to 0.06 mg/L. • 3.2 Culture medium: The drug susceptibility test used cation adjusted Mueller-Hinton broth (CAMHB). • 3.3 Amount of inoculum: The test bacteria cultured overnight were adjusted to 0.5 McFarland turbidity by the direct colony suspension method, and diluted 100 folds, the final inoculum amount was 10^5 CFU/mL. • 3.4 Culture conditions: The test bacteria were cultured at 35±2° C. for 20 hours in air.
(§4) The drug susceptibility test results were interpretated by reference to CLSI 2019 M100 29th edition criteria.
(§5) The quality control strains of the drug susceptibility test were Escherichia coli ATCC 25922, Acinetobacter baumannii ATCC 19606, Staphylococcus aureus ATCC 29213, Klebsiella pneumoniae ATCC BAA-1705, ATCC 43816, ATCC BAA-2472, ATCC-BAA-1898, ATCC-BAA-1899, NCTC 13440 and ATCC-BAA-2470.
(§6) The results of drug susceptibility test were statistically analyzed by WHONET software (version 5.6).

[3] = test system: Bladder cancer cell line UM-UC-3; assay: Inhibitory activity on cancer cells, CellTiter-Glo viability, UM-UC-3; settings: Homo sapiens, UMUC3, 72 hours treatment
Description: as §1

[4] = test system: Staphylococcus aureus (methicillin-resistant and sensitive clinical isolates; ATCC29213); assay: MIC by micro broth dilution (CLSI), Staphylococcus aureus; settings: for MIC50 / MIC90: Clinical strain; for MIC50: read-out: MIC50; for MIC90: read-out: MIC90; for MIC: Standard strain ATCC29213, read-out: MIC
From the text: as §2, §3, §4, §5, §6

[5] = test system: Endothelial cell line HUVEC; assay: Inhibitory activity on cells, CellTiter-Glo viability, HUVEC; settings: Homo sapiens, 72 hours treatment
Description: as §1

[6] = test system: Escherichia coli (carbapenem-resistant clinical isolate; ATCC25922); assay: MIC by micro broth dilution (CLSI), Escherichia coli; settings: for MIC50 / MIC90: ATCC25922, Clinical strain; for MIC50 / MIC90 / MIC: Escherichia coli; for MIC50: read-out: MIC50; for MIC90: read-out: MIC90; for MIC: Standard strain ATCC25922, read-out: MIC
From the text: as §2, §3, §4, §5, §6

IC50 [1]	MIC50 [2]	MIC90 [2]	MIC [2]	IC50 [3]	MIC50 [4]	MIC90 [4]	MIC [4]	MIC50 [6]	MIC90 [6]	MIC [6]	Compound	IC50 [5]	inhibitory effect against Escherichia coli compared with the reference drug nitroxoline ([6]; MIC comparison)
3.9 µM	8 µg/mL (≈ 29.7 µM)	8 µg/mL (≈ 29.7 µM)	32 µg/mL (≈ 119 µM)	8.9 µM	8 µg/mL (≈ 29.7 µM)	8 µg/mL (≈ 29.7 µM)	8 µg/mL (≈ 29.7 µM)	16 µg/mL (≈ 59.5 µM)	16 µg/mL (≈ 59.5 µM)	32 µg/mL (≈ 119 µM)	O=[N+]([O-])c1ccc2c(Br)ccnc2c1O [Example 16, 4-Bromo-7-nitroquinolin-8-ol]	8.1 µM	
23.6 µM	128 µg/mL (≈ 549 µM)	128 µg/mL (≈ 549 µM)	128 µg/mL (≈ 549 µM)	16.9 µM	128 µg/mL (≈ 549 µM)	128 µg/mL (≈ 549 µM)	128 µg/mL (≈ 549 µM)	64 µg/mL (≈ 274 µM)	64 µg/mL (≈ 274 µM)	128 µg/mL (≈ 549 µM)	CN(C)c1ccnc2c(O)c([N+](=O)[O-])ccc12 [Example 17, 4-(Dimethylamino)-7-nitroquinolin-8-ol]	27.4 µM	

Second part, the compound before the results:

Compound	IC50 [1]	MIC50 [2]	MIC90 [2]	MIC [2]	IC50 [3]	MIC50 [4]	MIC90 [4]	MIC [4]	MIC50 [6]	MIC90 [6]	MIC [6]	IC50 [5]	inhibitory effect against Escherichia coli compared with the reference drug nitroxoline ([6]; MIC comparison)
O=[N+]([O-])c1ccc2c(Cl)ccnc2c1O [Example 12, 4-Chloro-7-nitroquinolin-8-ol]	4.1 µM	2 µg/mL (≈ 8.9 µM)	4 µg/mL (≈ 17.8 µM)	4 µg/mL (≈ 17.8 µM)	7.5 µM	2 µg/mL (≈ 8.9 µM)	2 µg/mL (≈ 8.9 µM)	2 µg/mL (≈ 8.9 µM)	4 µg/mL (≈ 17.8 µM)	4 µg/mL (≈ 17.8 µM)	4 µg/mL (≈ 17.8 µM)	7.5 µM	comparable to that of the reference drug nitroxoline
O=[N+]([O-])c1ccc2c(N3CCCC3)ccnc2c1O [Example 13, 7-Nitro-4-(pyrrolidin-1-yl)quinolin-8-ol]	35.4 µM	> 128 µg/mL	> 128 µg/mL	> 128 µg/mL	38 µM	> 128 µg/mL	> 128 µg/mL	> 128 µg/mL	> 128 µg/mL	> 128 µg/mL	> 128 µg/mL	> 50 µM	
O=[N+]([O-])c1ccc2c(N3CCOCC3)ccnc2c1O [Example 14, 4-Morpholino-7-nitroquinolin-8-ol]	8.7 µM	128 µg/mL (≈ 465 µM)	> 128 µg/mL	> 128 µg/mL	6.1 µM	128 µg/mL (≈ 465 µM)	128 µg/mL (≈ 465 µM)	128 µg/mL (≈ 465 µM)	128 µg/mL (≈ 465 µM)	128 µg/mL (≈ 465 µM)	> 128 µg/mL	10.9 µM	
O=[N+]([O-])c1ccc2c(-n3ccnc3)ccnc2c1O [Example 15, 4-(1H-Imidazol-1-yl)-7-nitroquinolin-8-ol]	35.2 µM	> 128 µg/mL	> 128 µg/mL	> 128 µg/mL	36.2 µM	64 µg/mL (≈ 250 µM)	128 µg/mL (≈ 500 µM)	128 µg/mL (≈ 500 µM)	128 µg/mL (≈ 500 µM)	128 µg/mL (≈ 500 µM)	> 128 µg/mL	32.3 µM	
